# Test results as given in ChEMBL document CHEMBL1136185, “Linearized and truncated microcystin analogues as inhibitors of protein phosphatases 1 and 2A” (Bioorg Med Chem Lett, 2003).
# Biological target: T1, Serine-threonine protein phosphatase 2A regulatory subunit (Gallus gallus, UniProt Q8AWE3)
# T1 sequence (Q8AWE3 whole entry): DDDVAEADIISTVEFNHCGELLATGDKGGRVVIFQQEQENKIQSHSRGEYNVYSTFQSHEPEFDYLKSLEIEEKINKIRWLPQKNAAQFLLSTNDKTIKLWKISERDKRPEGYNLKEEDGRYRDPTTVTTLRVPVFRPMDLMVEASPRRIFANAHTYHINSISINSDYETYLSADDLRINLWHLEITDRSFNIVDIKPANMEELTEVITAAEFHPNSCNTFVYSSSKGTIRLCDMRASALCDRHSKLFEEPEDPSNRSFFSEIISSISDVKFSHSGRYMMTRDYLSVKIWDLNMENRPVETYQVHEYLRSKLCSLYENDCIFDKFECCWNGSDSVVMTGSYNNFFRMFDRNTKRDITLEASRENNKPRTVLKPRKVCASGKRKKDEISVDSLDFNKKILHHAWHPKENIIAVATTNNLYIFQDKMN
# Test: Inhibitory concentration required against protein phosphatase 2A using pNPP assay
row,Compound,IC50 [µM]
1,CO[C@@H](Cc1ccccc1)[C@@H](C)/C=C(C)/C=C/[C@H](NC(C)=O)[C@H](C)C(=O)N[C@H](CCC(=O)N(C)CC(=O)N[C@H](C)C(=O)N[C@@H](CC(C)C)C(=O)O)C(=O)O,17
2,COC(=O)[C@@H](CCC(=O)N(C)C)NC(=O)[C@@H](C)[C@H](/C=C/C(C)=C/[C@H](C)[C@H](Cc1ccccc1)OC)NC(C)=O,> 100
3,CO[C@@H](Cc1ccccc1)[C@@H](C)/C=C(C)/C=C/[C@H](NC(C)=O)[C@H](C)C(=O)N[C@H](CCC(=O)N(C)CC(=O)N[C@H](C)C(=O)O)C(=O)O,135
4,C=C(C(=O)N[C@H](C)C(=O)N[C@@H](CC(C)C)C(=O)O)N(C)C(=O)CC[C@@H](NC(=O)[C@@H](C)[C@H](/C=C/C(C)=C/[C@H](C)[C@H](Cc1ccccc1)OC)NC(C)=O)C(=O)O,16
5,CO[C@@H](Cc1ccccc1)[C@@H](C)/C=C(C)/C=C/[C@H](N)[C@H](C)C(=O)N[C@H](CCC(=O)N(C)CC(=O)N[C@H](C)C(=O)O)C(=O)O,270
6,CO[C@@H](Cc1ccccc1)[C@@H](C)/C=C(C)/C=C/[C@H](NC(C)=O)[C@H](C)C(=O)N[C@H](CCC(=O)N(C)C)C(=O)O,20
